Data as given in patent US7632816B2, “Treatment of Alzheimer amyloid deposition” (New York University, priority 2003, dated 2009).
“Also recorded” adds a separate entry of the source. Square brackets hold non-standard residues; d marks the D form. Peptide text beside a SMILES is read from it.

Experiments:
[1] = parameters: species or system mice; conditions: mouse, in vivo
Description: Blood samples were collected at given time points. Serum was separated from plasma by centrifugation at 10,000×g for 10 minutes. The trichloroacetic (TCA) acid precipitation method was used to assess the amount of radiolabeled peptide present in the serum (Yi et al., “Amyloid β40/42 Clearance Across the Blood-brain Barrier Following Intra-ventricular Injections in Wild-type, apoE Knock-out and Human apoE3 or E4 Expressing Transgenic Mice,” J. Alz. Dis. 3:23-30 (2001); Mackic et al., “Transport Across the Blood-brain Barrier and Differential Cerebrovascular Sequestration of Circulating Alzheimer's Amyloid-β Peptide in Aged Rhesus Versus Aged Squirrel Monkeys,” Vascul. Pharmacol. 38:303-313 (2002); which are hereby incorporated by reference in their entirety). A 30% stock solution of bovine albumin (Sigma, St. Louis, Mo.) in PBS was added to serum samples to obtain a final albumin solution of 5%, which was thoroughly mixed. Serum samples were then precipitated with TCA (final concentration of TCA was 15%) and centrifugated at 25,000×g in a Beckmann TL-100 Ultracentrifuge. Radioactivity was assessed in the pellet fraction using a Beckman 4000 gamma counter. Serum level of ^125I-Aβ12-28P following intranasal peptide administration was assessed in another six wild type C57BL6J mice. Under ketamine/xylazine anesthesia 80 μg of radiolabeled peptide (in 100 μl of PBS) was administered into the nasal cavity. Ten 10 μl drops were instilled into both nostrils alternatively over five minutes. Serum samples were collected and radioactivity in TCA precipitated pellets was measured as described above. The obtained data was transformed into percentage values compared to serum radioactivity following intravenous injections at t=0 as 100%. The mean±standard deviation from all tested animals was plotted in FIG. 4 and analyzed by a one phase exponential decay nonlinear regression fit algorithm using GraphPad Prism v4.0.
At t=0, the serum level was equal to about 40% of the level achieved after administration of the same amount of peptide intravenously.

[2] = mouse
[3] = Thioflavin-T assay of the peptides' own amyloid fibril formation; type: physicochemical; conditions: 100 μmol/L peptide, 37° C., up to 10 days
Description: All peptides were HFIP treated and reconstituted in 100 mM Tris buffer (pH 7.4) to obtain a 100 μmol/L concentration. […] Peptides were incubated over a period of 10 days at 37° C. Samples containing 15 μg of incubated peptides were taken at indicated intervals and fluorescence was measured as previously described in a Perkin-Elmer LS-50B fluorescence spectrophotometer (Perkin Elmer Instruments, Shelton, Conn.) (Wisniewski et al., “Acceleration of Alzheimer's Fibril Formation by Apolipoprotein E in vitro,” Am. J. Pathol. 145:1030-1035 (1994); Golabek et al., “The Interaction Between Apolipoprotein E and Alzheimer's Amyloid β-peptide is Dependent on β-peptide Conformation,” J. Biol. Chem. 271:10602-10606 (1996); which are hereby incorporated by reference in their entirety). The mean±standard deviation (“SD”) for three separate experiments was plotted in FIG. 1. Differences in amount of fibrils formed by the different peptides were evaluated by means of a repeated measures ANOVA, followed by a Tukey HSD post-hoc test using Statistica (version 6.1) (StatSoft Inc., Tulsa, Okla.).

[4] = test system: APP^K670N/M671L/PS1^M146L double Tg mice; assay: Aβ deposition in APP/PS1 double transgenic mice, 6E10 and Thioflavin-S histology with stereology; type: in vivo; conditions: for Aβ load lower compared to vehicle Tg controls: 1 mg i.p. three times per week, four weeks
Description: Initial testing of Aβ12-28P toxicity in vivo was performed on five wild type C57BL6 mice which received intraperitoneal (“i.p.”) injections of 1 mg of Aβ12-28P diluted in 0.5 mL of sterile PBS three times per week for four weeks. […] Signs of toxicity included change in body weight, physical appearance, measurable clinical signs, unprovoked behavior and response to external stimuli were not noticed. After one month, the animals were sacrificed and samples were taken from the brain, liver, gut, spleen, kidney and heart, for hematoxylin and eosin staining. […] The first administration of Aβ12-28P was begun at four months of age, at which time the APP^K670N/M671L/PS1^M146L mice already have significant numbers of Aβ lesions (Wengenack et al., “Quantitative Histological Analysis of Amyloid Deposition in Alzheimer's Double Transgenic Mouse Brain,” Neurosci. 101:939-944 (2000); McGowan et al., “Amyloid Phenotype Characterization of Transgenic Mice Overexpressing Both Mutant Amyloid Precursor Protein and Mutant Presenilin 1 Transgenes,” Neurobiol. Dis. 6:231-244 (1999), which are hereby incorporated by reference in their entirety). The treatment was continued for four weeks (1 mg i.p. three times per week). Control age-matched APP^K670N/M671L/PS1^M146L mice received injections with vehicle only. There were six Aβ12-28P treated and six vehicle treated APP^K670N/M671L/PS1^M146L mice in this study.
Animals were sacrificed a week after the last injection with an overdose of sodium pentobarbital (150 mg/kg i.p.) and transcardially perfused with 20 ml of heparinized 0.1M PBS followed by 4% buffered paraformaldehyde. The brain was dehydrated using increasing concentrations of sucrose in 0.1M PBS, pH 7.4 and sectioned using a freezing microtome (Leica SM2400) (Nussloch, Germany). Serial coronal sections (40 μm thick) were collected in 10 series. Each of the series contained a complete set of cross-sections along the rostro-caudal axis of the brain spaced by 400 μm. […] For Aβ immunohistochemistry, endogenous peroxidase activity was quenched in 0.3% H2O2 for 30 min and incubation with mAb 6E10 at 1:1000 dilution was followed by an anti-mouse IgG biotinylated secondary antibody (1:2000) and avidin-horseradish peroxidase complex (Vectastain MOM kit) (Vector Laboratories, Burlingame, Calif.). Sections were developed using 3,3′-diaminobenzidine kit with nickel ammonium sulfate (Vector Laboratories, Burlingame, Calif.).
Aβ deposition were quantified on one randomly selected section series which was stained with 6E10 mAb. Aβ deposits were measured in the brain cortex and in the hippocampus using a random, unbiased sampling scheme.

Aβ1-42 = biological target: T1, Aβ1-42 (Homo sapiens, UniProt P05067); assay: Thioflavin-T assay: peptide alone added to Aβ1-42 (no apoE); type: biochemical; conditions: same concentration of Aβ12-28P
T1 construct: made in house; host or cells: chemical peptide synthesis
T1 sequence (P05067 672-713): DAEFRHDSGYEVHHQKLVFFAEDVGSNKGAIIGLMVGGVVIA

Structure (SMILES): CC(=O)N[C@@H](C(=O)N[C@H](Cc1c[nH]cn1)C(=O)N[C@H](Cc1c[nH]cn1)C(=O)N[C@H](CCC(N)=O)C(=O)N[C@H](CCCCN)C(=O)N[C@H](CC(C)C)C(=O)N1CCC[C@@H]1C(=O)N[C@H](Cc1ccccc1)C(=O)N[C@H](Cc1ccccc1)C(=O)N[C@H](C)C(=O)N[C@H](CCC(=O)O)C(=O)N[C@H](CC(=O)O)C(=O)N[C@@H](C(=O)NCC(=O)N[C@H](CO)C(=O)N[C@H](CC(N)=O)C(=O)N[C@H](CCCCN)C(N)=O)C(C)C)C(C)C [Aβ12-28P] (Ac-[dV][dH][dH][dQ][dK][dL][dP][dF][dF][dA][dE][dD][dV]G[dS][dN][dK]-NH2)
- areas under the curve, intravenous versus intranasal [1]: no significant differences
- half-life after a single intravenous injection [1]: 1.03 h
- half-life ([1]; iv, half-life after a single intravenous injection): 1.04 ± 0.3 h
- BBB permeability [2]: BBB permeable
- share found in the capillary depleted brain fraction ([2]; in vivo): More than 90%
- fibril formation (Thioflavin-T fluorescence) [3]: did not form any fibrils; also recorded: non-fibrillogenic; also recorded: No fibrils were formed
- reduction in the number of medium-size plaques ([4]; cortex, >500 μm^2 and <1000 μm^2, p<0.05): 53.5%
- reduction in the number of large plaques ([4]; cortex, >1000 μm^2, non-significant): 44%
- reduction in the density of small plaques ([4]; cortex, cross-section area <500 μm^2, p<0.001): 52.8%
- Aβ load lower compared to vehicle Tg controls ([4]; cortex, p=0.0047): 63.3%
- density of fibrillar Aβ plaques on Thioflavin-S staining ([4]; four weeks of treatment): reduction in the density of Aβ plaques was also seen
- reduction in the density of large plaques ([4]; hippocampus, p<0.05): 65.4%
- reduction in the density of medium-size plaques ([4]; hippocampus, p<0.05): 48.6%
- reduction in the density of small plaques ([4]; hippocampus, p<0.05): 37.6%
- Aβ load lower compared to vehicle Tg controls ([4]; hippocampus, p=0.0048): 61.9%
- reduction in the numerical density of Aβ plaques ([4]; hippocampus, p=0.0047): 46.3%
- reduction in the numerical density of Aβ plaques ([4]; neocortex, p=0.0002): 60.1%
- reduction in Aβ load and plaque density versus control Tg animals, in words ([4]; one month of administration): over two fold; also recorded: significant reduction
- effect of peptide alone on Aβ1-42 fibrillogenesis (Aβ1-42): did not have any significant effect
